Experimental data: the METLIN SMRT retention time set (Domingo-Almenara et al. 2019)

Test: gradient 5% acetonitrile 3 min, to 50% in 2 min, to 85% in 15 min, held 3 min, 100 µL/min
Settings: column: Zorbax Extend-C18 2.1 x 50 mm; eluents: water / acetonitrile, 0.1% formic acid
How it was run: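 Values are retention times taken from adduct peaks that software picked and an analyst inspected. The pure standards were run as mixtures of ~100 molecules on HPLC linked to a quadrupole time-of-flight mass spectrometer, in positive and negative ionization mode. A Zorbax Extend-C18 column (2.1 × 50 mm, 1.8 μm) was used at 100 μL/min with water and acetonitrile, each including 0.1% formic acid.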

RP-LC retention time [s]	SMILES
1340	Cc1ccc(Cn2c(C(=O)NC3CCC(C)CC3)cc3sccc32)cc1 (stereo unspecified)
983	Cc1sc2ccn(CC(C)C)c(=O)c2c1C(=O)NCc1ccc(F)cc1F
698	Cn1c(=O)c(-c2ccc(C(=O)N3CCOCC3)cc2)nc2ccccc21
610	CNC(=O)c1cncc(OC(C)C)c1
673	O=C(CCC1CCN(c2cc(NC3CC3)ncn2)CC1)NCc1ccccc1F
1330	Cc1ccc(-c2noc(Cn3cnc4c(cnn4-c4ccc(C(C)C)cc4)c3=O)n2)cc1C
641	Cc1ccc(OCc2nc(C3CCNC3)no2)cc1 (stereo unspecified)
640	CCCn1c(=O)sc2cc(S(=O)(=O)N3CCC(C(=O)N4CCN(CC)CC4)CC3)ccc21
921	CCCc1nnsc1C(=O)NCC(c1cccs1)S(=O)(=O)c1ccc(C)cc1 (stereo unspecified)
993	CCOC(=O)CC(=O)CSc1nc(-c2ccccc2)ns1
587	O=C(O)c1ccc(NCCCO)c([N+](=O)[O-])c1
750	O=C(Nc1ccc2c(c1)OCO2)C1CC(=O)N(CCc2c[nH]c3ccc(F)cc23)C1 (stereo unspecified)
726	Cc1noc([C@@H]2CC(F)(F)CN2C(=O)c2cc(C3CC3)[nH]n2)n1
684	O=C(CC1CCCC1)Nc1ccc2c(c1)CCC(=O)N2
712	CCCC(NC(=O)c1ccc(F)c(F)c1)C(=O)Nc1nc2ccccc2[nH]1 (stereo unspecified)
651	Cc1ccn2cc(-c3ccc(NS(=O)(=O)c4cccc(F)c4)cc3)nc2n1
735	CCOc1ccc(NC(=O)Cn2c(-c3cnccn3)nc(C)c(C)c2=O)cc1
780	COc1cc2c(cc1CNC(=O)c1cccs1)OCCCO2
1000	O=c1ccn(-c2ccc(Cl)cc2)nc1-c1nc(-c2ccccc2Br)no1
688	O=S(=O)(NCC1(O)CCOCC1)c1ccc2c(c1)CCCC2
1300	Cc1cc(=O)n(Cc2ccc(OC(F)(F)F)cc2)c(Nc2ccc(F)c(F)c2)n1
901	CC(=O)NC(C)c1nc(-c2ccc(C(C)(C)C)cc2)no1 (stereo unspecified)
660	COCCCNC(=O)c1ccc(-n2nc(C)c3c2CCCC3=O)cc1

RP-LC retention time [s]	SMILES
571	NC(=O)[C@@H]1C[C@H](Oc2ccccc2)CN1C1CCC1
844	CC(C)(C)c1ccc(C(CNC(=O)c2cc(-c3ccc4c(c3)OCCO4)on2)N2CCCC2)cc1 (stereo unspecified)
1010	COc1ccc(-c2nnc(-c3ccc(C)c(S(=O)(=O)NC4CCCC4)c3)o2)cc1OC
829	COc1cc(NC(=O)Cn2nc([N+](=O)[O-])cc2C)c(OC)cc1Cl
696	COc1cccc2c(Nc3cccc(C)c3)cc(C(=O)N3CCSCC3)nc12
1180	CCn1cc(-c2nc(C(=O)Nc3ccccc3OC)cs2)c2cccnc21
653	Cc1cc(C)nc(NS(=O)(=O)c2ccc(NC(=O)c3c(F)cccc3F)cc2)n1
597	Cc1cnn(CC(=O)N2CCCn3ccnc3C2C2CCCC2)c1 (stereo unspecified)
746	O=C(CN1C(=O)CCS(=O)(=O)c2ccccc21)Nc1ccccc1C(F)(F)F
821	CC(Cc1ccco1)NC(=O)C1CCN(Cc2cc3ccccc3n2Cc2cccc(Cl)c2)CC1 (stereo unspecified)
594	O=C(c1cc(-c2cccnc2)n[nH]1)N1CCN(C(=O)C2CCCC2)CC1
635	CNC(=O)C1CCCN(c2nc3ncn(CC(=O)Nc4ccc(F)cc4F)c(=O)c3s2)C1 (stereo unspecified)
594	O=C(NCc1n[nH]c(=O)c2ccccc12)C1CC(=O)N(c2ccccc2)C1 (stereo unspecified)
900	Cc1cc(Cl)ccc1N1C(=O)CN(S(C)(=O)=O)CC1(C)C(=O)NC1CCCCC1 (stereo unspecified)
674	CCN(CC)CCc1nc(-c2ccccc2)no1
1030	COc1ccc(N2CC(c3nc(-c4ccc(N(C)C)cc4)no3)CC2=O)cc1Cl (stereo unspecified)
858	Cc1ccc(Cl)cc1S(=O)(=O)NCC(O)Cc1ccccc1 (stereo unspecified)
1050	Cc1ccc(C2Cn3nnc(C(=O)NC4CCCCC4)c3CO2)cc1 (stereo unspecified)
720	CCCn1cnc2cc(CNC(=O)c3cc4cc(Cl)ccc4[nH]3)ccc21
845	CCn1c(=O)sc2cc(S(=O)(=O)N3CCC(C(=O)NC4CCCC4)CC3)ccc21
791	COC(=O)c1cc(OCC(=O)NC2CCCCC2)c2cc(OC)ccc2n1
624	Cn1nccc1C(=O)N1CCC(c2nncn2Cc2ccccc2)CC1
774	CCc1noc(NC(C)=O)c1-c1ccc(OC)c(S(=O)(=O)Nc2cc(OC)ccc2OC)c1

RP-LC retention time [s]	SMILES
1070	O=C(NCc1ccco1)c1c(O)c2cccnc2n(-c2cccc(F)c2)c1=O
519	CC(C)C(=O)Nc1nnc2n1CCS2
607	O=C(c1ccco1)N1CCN(C(=O)C2CCN(c3ccc(N4CCCCC4)nn3)CC2)CC1
589	Cc1cnc(C2CNC2)n1Cc1ccccc1
847	COc1ccc(Br)cc1CNC(=O)Cn1cc(-c2nnc(C)o2)c2ccccc21
1110	CCCCC(SC1=Nc2ccccc2C2=NC(Cc3c[nH]c4ccccc34)C(=O)N12)C(=O)OCC (stereo unspecified)
782	CCOc1ccc(-c2noc(N3CCC(C(=O)N4CCCC4)CC3)n2)cc1OC
773	CC(C)[C@H](NC(=O)OCc1ccccc1)C(=O)N[C@H](C=O)Cc1ccccc1
550	CC(C)CNC(=O)N1CCCC(Cc2nncn2C)C1 (stereo unspecified)
1080	CCCN1C(=O)COc2ccc(-c3csc(NC(=O)c4ccc(C)cc4)n3)cc21
824	Cc1ccc(S(=O)(=O)N2CCC(c3nc(C(=O)N4CCOCC4)c(C)o3)CC2)cc1
824	CC(C)c1cc(C2CCCN2C(=O)c2ccc3c(c2)OCO3)on1 (stereo unspecified)
706	CCc1ccc(S(=O)(=O)c2cnc(N3CCN(C4CCCCC4)CC3)nc2N)cc1
898	CN(C)c1ccc(N2C=C(C(=O)N3CCCCC3)S(=O)(=O)c3ccccc32)cc1
926	O=C(c1cc(S(=O)(=O)N2CCCCCC2)ccc1Cl)N1CCN(c2ncccn2)CC1
666	COc1ccc(-c2nc(-c3ccc4c(c3)ncn4CCN3CCOCC3)no2)c(C)c1
762	COc1ccc(OC)c(NC(=O)c2ccc3nc(-c4ccccc4)cn3c2)c1
927	O=C(Nc1cnc(N2CCCCC2)nc1)c1ccc(Br)o1
950	Cc1ccc(-n2ccc(=O)c(-c3nc(-c4ccccc4Br)no3)n2)cc1
723	Cc1cc(C)c(-c2noc(C)n2)c(NC(=O)C2CCCCC2)n1
865	CC1CC(=O)N(CC(=O)Nc2ccc3c(c2)OCO3)c2ccccc2S1 (stereo unspecified)
661	CC(=O)c1ccc(C)cc1OC(=O)c1cccc2nc(C)oc12
1060	Cc1ccc(-c2ccc(-n3nc(C)c(S(=O)(=O)Nc4ccccc4)c3C)nn2)cc1

RP-LC retention time [s]	SMILES
984	Cc1ccc(Cl)cc1N1CCN(C(=O)c2cc3sccc3n2C)CC1
562	Cc1noc([C@@H]2CN(Cc3c(F)cccc3F)C[C@H]2CO)n1
670	CCOC(=O)Nc1nc2c(s1)CN(S(=O)(=O)N(C)C)CC2
792	CCN(c1cccc(C)c1)S(=O)(=O)c1cc(-c2[nH]ncc2C(=O)N(C)C)oc1C
724	CCN1C(=O)C2(CCN(S(=O)(=O)c3cn(C)cn3)CC2)c2ccccc21
708	Cc1cc2[nH]c(C(=O)Nc3ccccc3Br)c(CN3CCOCC3)c2s1
702	Cc1cccc(-c2ncccc2CNS(=O)(=O)c2ccccc2F)c1
1060	CCc1cc(C(=O)Nc2ccccc2F)nc2ccnn12
709	COc1ccc(CCC(=O)NCC(C)(O)c2ccccc2)cc1 (stereo unspecified)
672	Cc1nc(C)c(-c2nnc(NC(=O)NCc3cccs3)o2)s1
1250	Cc1ccc(Cl)cc1NC(=O)Cc1c(C)nn(-c2nc(-c3ccc(F)cc3)cs2)c1C
585	CC(C)C(=O)Nc1ccc2nc(N3CCN(Cc4ccccc4F)CC3)cc(C(=O)O)c2c1
603	Cc1cc(=O)n(CC(=O)NCCn2nc(-c3ccc(F)cc3)ccc2=O)cn1
868	CC(=O)N1c2ccc(S(=O)(=O)N3CCCC3)cc2CC1C(=O)NCCCc1ccccc1 (stereo unspecified)
629	CCc1nnc(-c2ccc3ccn(CC(=O)NCc4ccccn4)c3c2)o1
700	Cc1cc(Cn2cnc3c2C[C@@H](C(=O)O)N(C(=O)C(c2ccccc2)c2ccccc2)C3)ccc1N
670	COCCOC1CCOC2(CCN(C(=O)c3ccsc3)CC2)C1 (stereo unspecified)
1030	O=C(NCc1ccccn1)C1=C2CCCN2c2ccc(F)cc2S1(=O)=O
777	COC(=O)c1cccc(Nc2ncccc2S(N)(=O)=O)c1
841	CN1C(=O)COc2cc(-c3noc(C(=O)N4CCCCC4)n3)ccc21
851	O=C(NCCc1c[nH]c2ccc(Cl)cc12)c1cncc(Br)c1

SMILES	RP-LC retention time [s]
O=C1[C@H]2CNC[C@H]2C(=O)N1CCc1ccccc1	604
